Assay results as given in patent US11655492B2, “Activated formylglycine-generating enzymes and methods of producing and using the same” (R.P. Scherer Technologies, LLC, priority 2015, dated 2023).
Several values for one entry are separate records, joined by “and”; a condition that tells them apart may be missing. Equal entries are not always repeated. Where two headings read alike, the source gives them in different places.

Assays:
Sc-FGE = Sc-FGE (Streptomyces coelicolor, UniProt Q9F3C7); format: biochemical, S. coelicolor
Chain of Sc-FGE (Q9F3C7 whole entry): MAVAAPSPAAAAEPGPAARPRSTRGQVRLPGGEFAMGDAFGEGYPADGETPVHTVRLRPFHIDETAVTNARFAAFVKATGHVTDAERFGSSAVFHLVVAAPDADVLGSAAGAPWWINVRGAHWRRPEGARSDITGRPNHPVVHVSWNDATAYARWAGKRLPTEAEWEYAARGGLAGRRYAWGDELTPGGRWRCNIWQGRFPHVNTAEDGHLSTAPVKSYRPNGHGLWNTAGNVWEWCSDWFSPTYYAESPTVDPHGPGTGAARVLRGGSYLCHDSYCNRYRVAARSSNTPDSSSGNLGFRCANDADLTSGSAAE

FGE = molecular target: T1, FGE (Homo sapiens, UniProt Q8NBK3); test: FGE reaction mixtures with reductants or additives (product formation); format: biochemical; conditions: reducing agent used as stoichiometric reductant, in large excess
T1 construct: made in house
T1 sequence (Q8NBK3 with tags, fused parts or gaps isoform Q8NBK3-4): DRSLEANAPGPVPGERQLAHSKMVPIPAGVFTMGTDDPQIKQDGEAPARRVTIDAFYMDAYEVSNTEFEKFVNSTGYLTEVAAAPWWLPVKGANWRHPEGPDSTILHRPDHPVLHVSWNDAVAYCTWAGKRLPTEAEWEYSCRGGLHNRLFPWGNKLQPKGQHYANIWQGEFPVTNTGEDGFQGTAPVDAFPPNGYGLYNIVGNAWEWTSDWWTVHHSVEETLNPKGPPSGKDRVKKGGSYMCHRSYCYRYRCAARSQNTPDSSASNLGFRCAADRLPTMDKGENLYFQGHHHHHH
Protocol: The specific activity of FGE was measured using a discontinuous enzymatic activity assay. […] The rate of reaction was determined by integrating the peak areas at 215 nm of the substrate cysteine (Csub) and product (fGly) peptides on reversed-phase HPLC. […] Each aqueous reaction solution (120 μL) contained Csub (100 μM), FGE (0.1-1 μM), DTT (1 mM), and buffer (25 mM TEAM, pH 9). A single time course included 5 data points collected at evenly spaced intervals. The reaction was initiated upon addition of FGE stock solution and vortexing for 3 s. The reaction vial was vortexed at 1,500 RPM and 25° C. in a thermomixer R (Eppendorf). Time points were hand quenched by adding 20 μL of reaction mixture to 2 μL of 1 M HCl using a micropipettor. After completion of the reaction, each time point was analyzed by RP-HPLC (see below).
The conversion of Cys to fGly used a 2 H^+/2 e^− oxidation of the substrate Cys thiol as well as exchange of sulfur for oxygen. […] However, because O2 is a 4 H^+/4 e^− acceptor, a reducing agent was used to provide a second equivalent of 2 H^+ and 2 e^−, completing the reduction from O2 to 2 mol H2O. […] A mixture of reductant (DTT) and O2 was used for routine activity measurements.

Hs-cFGE = molecular target: T2, Hs-cFGE (Homo sapiens, UniProt Q8NBK3)
T2 sequence (Q8NBK3 with tags, fused parts or gaps isoform Q8NBK3-4): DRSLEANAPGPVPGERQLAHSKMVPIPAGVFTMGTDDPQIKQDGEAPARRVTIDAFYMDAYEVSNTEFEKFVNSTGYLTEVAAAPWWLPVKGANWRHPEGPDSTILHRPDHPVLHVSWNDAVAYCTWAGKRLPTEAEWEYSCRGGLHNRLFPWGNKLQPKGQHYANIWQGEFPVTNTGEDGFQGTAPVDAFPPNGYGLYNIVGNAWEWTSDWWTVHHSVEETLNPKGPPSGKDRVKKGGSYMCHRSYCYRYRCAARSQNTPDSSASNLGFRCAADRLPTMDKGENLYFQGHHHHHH

[1] = as measured versus glutathione disulfide; cited from earlier work
CT-1.1 tagged Her2 = test: 293 Expi transient co-transfection of FGE form and CT tagged antibody, conversion by mass-spectrometry; format: cell-based
Protocol: A 293 Expi transient co-transfection system (Life Technologies) was used for producing antibodies having a formylglycine residue at a selected site. The system produced high antibody titers (100-500 mg/L) with variable (10-95%) conversion. […] Expi 293F that were treated with or without 50 μM copper sulfate prior to transfection were transiently co-transfected in three independent experiments with expression plasmids for full-length human FGE with an N-terminal KDEL (SEQ ID NO:7) amino acid sequence (+KDEL) and CT tagged antibody at a ratio of 3:1 antibody:FGE DNA. The culture was harvested at 5-6 days post transfection, titer assessed by ELISA, and the protein was purified and conversion was measured by mass-spectrometry.
Expi 293F cells that were treated with or without 50 μM copper sulfate prior to transfection were transiently co-transfected with expression plasmids for various forms of human FGE (+KDEL, WT, myc-His) and CT tagged antibody at a ratio of 3:1 antibody:FGE DNA. The culture was harvested at 5 days post transfection, titer assessed by ELISA, the protein was purified and conversion was measured by mass-spectrometry.

human FGE = human FGE (Homo sapiens, UniProt Q8NBK3); test: Effect of stimulators and inhibitors of oxidative phosphorylation on conversion; format: cell-based; conditions: DCA 0-50,000 μM; rotenone 0-15,000 nM with Cu^2+
Chain of human FGE (Q8NBK3 34-374): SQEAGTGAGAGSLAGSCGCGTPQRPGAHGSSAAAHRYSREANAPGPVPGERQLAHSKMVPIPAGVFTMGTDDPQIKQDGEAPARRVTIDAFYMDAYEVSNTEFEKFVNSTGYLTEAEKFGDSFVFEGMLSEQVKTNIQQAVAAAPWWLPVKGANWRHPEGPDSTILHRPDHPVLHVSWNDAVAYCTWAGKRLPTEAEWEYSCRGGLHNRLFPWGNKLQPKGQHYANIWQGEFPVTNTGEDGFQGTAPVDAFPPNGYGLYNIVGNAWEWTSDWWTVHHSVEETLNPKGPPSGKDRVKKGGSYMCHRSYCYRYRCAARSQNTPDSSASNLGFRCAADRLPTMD
Protocol: Experiments were performed to determine the effect of stimulators and inhibitors of oxidative phosphorylation on conversion efficiency for human FGE, as compared to Cu^2+.
(§2) Several experiments were run treating cells with DCA at several concentrations (DCA: 0 μM; 16 μM; 80 μM; 400 μM; 2000 μM; 10,000 μM; and 50,000 μM) and treating cells with Cu^2+ (copper sulfate) and rotenone (Rotenone: 0 nM; 5 nM; 24 nM; 120 nM; 600 nM; 3000 nM; and 15,000 nM) at several concentrations. Cells were plated and 10 μL of DCA or rotenone was added for a 4 hour treatment. Cells were equilibrated to room temperature 100 μL/well of Cell titerglo reagent (Promega) was added to each well. The plates were shaken of 2 min, incubated at room temperature for 10 min, and then read on a plate reader.

ATP production = ATP production dose response (Cell titerglo, 4 hour treatment); format: cell-based
Protocol: as §2

[2] = system: 14 amino acid peptide ALCTPSRGSLFTGR (SEQ ID NO:8); test: Discontinuous FGE activity assay on peptide substrate (RP-HPLC); format: biochemical
Protocol: [formula] where Et is the total enzyme in solution, and kcat and KM are the standard enzymatic parameters specified by the STRENDA commission. Units of enzyme specific activity are the katal, where 1 kat=1 mol·s^−1. Kinetic parameters were determined from nonlinear regression of [substrate] v. initial velocity using GraphPad prism.
The specific activity of FGE was measuring using a discontinuous enzymatic activity assay. The substrate for FGE was a 14 amino acid peptide containing the consensus sequence (H2N-[…]-COOH (SEQ ID NO:8)). The rate of reaction was determined by integrating the peak area at 215 nm of the starting material (Cys) and product (fGly) containing peptides on reversed-phase HPLC. The identity of product (and side product) peaks were determined by RP-HPLC MS/MS. Each aqueous reaction solution (60 μL) contained substrate peptide (100 μM), FGE (1 μM), DTT (1 mM), and buffer (25 mM triethanolamine, pH 9). A single time course consisted of 5 data points collected every 2 minutes. The reaction was initiated upon addition of FGE stock solution and vortexing for 3 s. Time points were quenched by diluting 10 μL of reaction mixture into 1 μL of 1 M HCl by hand with a micropipettor. After completion of the reaction, each time point was analyzed by RP-HPLC.
(§1) Substrate, product, and side products of the FGE substrate peptide […] (SEQ ID NO:8) were separated on RP-HPLC over 7 min with isocratic 18% MeCN in water containing 0.1% TFA. The integrated area of the fGly (2.1 min), Cys (3.3 min), βME-DS (3.6 min), and Cys-DS (6.2 min) forms of the substrate were used to calculate total area and each fraction thereof.
The specific activity of FGE was measured using a discontinuous enzymatic activity assay. The substrate for FGE was a 14 amino acid peptide containing the CXPXR consensus sequence ([…] (SEQ ID NO:8)). The rate of reaction was determined by integrating the peak areas at 215 nm of the substrate cysteine (Csub) and product (fGly) peptides on reversed-phase HPLC. The identities of product (and side product) peaks were determined by RP-HPLC MS/MS (see below). Each aqueous reaction solution (120 μL) contained Csub (100 μM), FGE (0.1-1 μM), DTT (1 mM), and buffer (25 mM TEAM, pH 9). A single time course included 5 data points collected at evenly spaced intervals. The reaction was initiated upon addition of FGE stock solution and vortexing for 3 s. The reaction vial was vortexed at 1,500 RPM and 25° C. in a thermomixer R (Eppendorf). Time points were hand quenched by adding 20 μL of reaction mixture to 2 μL of 1 M HCl using a micropipettor. After completion of the reaction, each time point was analyzed by RP-HPLC (see below).
as §1, with “integrated areas” for “integrated area”, “min), Csub” for “min), Cys”, “min), the Csub/βME disulfide (Csub-βME, 3.6” for “min), βME-DS (3.6”, “and substrate/substrate disulfide (Csub-Csub, 6.1” for “and Cys-DS (6.2”
Individual FGE reactions were initiated by rapidly mixing FGE into a premixed buffered solution of Csub and reducing agent. It was assumed that all buffered solutions contained oxygen at ˜270 μM at 25° C. (based upon Henry's law). Time points were chemically quenched by hand with HCl. […]. The identities of both the Cys- and fGly-containing peptides were confirmed by LC-MS/MS (FIG. 11). These assignments were then correlated with HPLC retention times (FIG. 14, panel a). The integrated peak areas of substrate and product were used to calculate the initial velocity of FGE (FIG. 14, panel b) using the method described by Boeker (Biochem. J., (1984), 223, 15; and Biochem. J., (1985), 226, 29).

[3] = system: IgG containing the aldehyde tag; test: In vitro conversion of intact mAb with FGE, fGly by LC-MRM/MS; format: biochemical
Protocol: DTT (20 mM) was added to a solution of mAb (20 μg) in buffered aqueous solution (25 mM NH4HCO3) to a final volume of 20 μL. The tube containing the sample was incubated at 37° C. for 15 min at 1500 RPM. Then, HCl (50 mM) was added to the solution and the tube was vortexed until mixed. Next, ammonium bicarbonate (100 mM) was added to the solution and the tube was vortexed until mixed. Trypsin (1 μg) and iodoacetamide (50 mM) were added, and the tube was incubated at 37° C. and 1500 RPM for 60 min in the dark. Finally, sodium citrate (150 mM, pH 5.5) and methoxylamine (100 mM) were added to the solution, and the tube was incubated at 37° C. for 16 h. The processed sample was then analyzed by LC-MRM/MS. The MRM transitions included modifications of the Cys-containing peptide including: cysteine, cysteine modified with iodoacetamide, formylglycine, formylglycine hydrate (including loss of water in the collision cell), and formylglycine methyl oxime. The abundance of each species was defined by its 5 most intense precursor/product ion pairs, which were integrated to give the total signal and relative fractions of each component. In the optimized digestion and capping procedure described above, unreacted Cys, fGly, or fGly-hydrate above background was not detected, observing only carboxyacetamidomethyl Cys (CAM) and the methyl oxime of fGly (MeOx). […]

[4] = nonlinear regression to Michaelis-Menten equation

Protocol for SQR: A Western blotting was performed on lysates from cells treated with Cu^2+ or not treated with Cu^2+, using antibodies against SQR to determine whether Cu^2+ increased the levels of SQR. […] Experiments were also performed to test whether overexpression of SQR in Expi cells could be a substitute for Cu^2+ in increasing conversion.

## O[C@H](CS)[C@H](O)CS (racemic) [DTT, dithiothreitol]
Sc-FGE; activated Sc-FGE, reductant and/or chelator, 15 mM each, 1 h, 37° C.
  effect of pretreatment of activated enzyme on specific activity: do not change
Sc-FGE; excess (100 molar equiv), 1 h at 25° C., reagent removed by gel filtration
  effect of pretreatment on specific activity: did not change
FGE
  rate of product formation: 3.27 min⁻¹
Hs-cFGE; 20 mM reducing agent on activated Hs-cFGE
  effect of treatment on specific activity: unchanged specific activity
[1]
  thiol-disulfide exchange rate constant k: 6×10^5

## O=S(=O)([O-])[O-].[Cu+2] [Cu^2+, copper(II) sulfate]
CT-1.1 tagged Her2
  effect on conversion: enhances conversion
CHO cells
  cell viability: does not significantly change
SQR
  levels of SQR: No significant difference

## O=C(O)CCP(CCC(=O)O)CCC(=O)O [TCEP, tris(carboxyethyl)phosphine]
Sc-FGE
  effect of pretreatment of activated enzyme on specific activity: do not change
Hs-cFGE
  effect of treatment on specific activity: unchanged specific activity

## C=C(C)[C@H]1Cc2c(ccc3c2O[C@@H]2COc4cc(OC)c(OC)cc4[C@@H]2C3=O)O1 [rotenone, Rotenone]
Human FGE
  effect on conversion: no effect on conversion
ATP production
  ATP production: affected ATP production as expected

## OCCS [βME, β-mercaptoethanol]
FGE
  rate of product formation: 5.07 min⁻¹
[1]
  thiol-disulfide exchange rate constant k: 1

B1: Hs-cFGE: catalytic core of H. sapiens FGE with C-terminal His6 tag (SEQ ID NO. 11), expressed in Hi5 insect cells (protein)
chain: DRSLEANAPGPVPGERQLAHSKMVPIPAGVFTMGTDDPQIKQDGEAPARRVTIDAFYMDAYEVSNTEFEKFVNSTGYLTEVAAAPWWLPVKGANWRHPEGPDSTILHRPDHPVLHVSWNDAVAYCTWAGKRLPTEAEWEYSCRGGLHNRLFPWGNKLQPKGQHYANIWQGEFPVTNTGEDGFQGTAPVDAFPPNGYGLYNIVGNAWEWTSDWWTVHHSVEETLNPKGPPSGKDRVKKGGSYMCHRSYCYRYRCAARSQNTPDSSASNLGFRCAADRLPTMDKGENLYFQGHHHHHH
[2]; 5 molar equiv of CuSO4, 1 h at 25° C., activated vs as purified
  increase of specific activity on activation: 3
[2]; after activation with 5 molar equiv of CuSO4, 1 h at 25° C., excess copper removed
  specific activity: 3,050±115 pkat·mg^−1
[2]; as purified from cell culture, not activated
  specific activity: 1,143 pkat·mg^−1 and 1,143±84 pkat·mg^−1
[2]; from kcat/KM
  efficiency relative to bacterial counterpart (Sc-FGE): approximately 10 fold
[2]; [4]
  Km: 0.34 µM
  kcat: 0.101 s⁻¹
[3]; after in vitro conversion
  fGly content in the antibody: 95-100%
[3]; in vitro conversion of aldehyde tagged mAb
  conversion yield from Cys to fGly: 90-100% and > 90%
